The values below are quoted from earlier work in patent US20040053283A1, “Gene 4” (priority 2000, published 2004).

Data set [1] concerns tissue culture model of cerebral ischemia.
Data set [2] concerns rat stroke model (middle ear cerebral artery occlusion). Particulars: in vivo.

SMILES strings stand for the structures.

For the compound `O=C(O)CCC(CP(=O)(O)O)C(=O)O` (stereo not shown) [2-PNPA, 2-(phosphonomethyl)pentanedioic acid], in data set [1] (10 μM, tissue culture model of cerebral ischemia), the “protection from cellular injury” value is 85%. In data set [1] (even one hour after the ischemia), the protective effect result was “significant”. Besides, the neuronal protection entry in data set [2] (rat stroke model (middle ear cerebral artery occlusion)) was “high degree of neuronal protection”. The tolerability result in data set [2] (rat stroke model, at levels that produced a high degree of neuronal protection) is reported as “well tolerated”.
